Assay results reported in US11180504B2 (ORCHID PHARMA LTD., priority 2016, dated 2021).
Values after ≈ are worked out from the molar mass of the structure shown.

Columns and labels:
[1] = system: carbapenem sensitive Pseudomonas aeruginosa; assay: MIC by broth micro-dilution (CLSI), carbapenem sensitive P. aeruginosa; type: cell-based; settings: Pseudomonas aeruginosa, ATCC27853, Meropenem susceptible P. aeruginosa ATCC27853; read-out: MIC
[2] = system: methicillin-sensitive Staphylococcus aureus; assay: MIC by broth micro-dilution (CLSI), methicillin-sensitive S. aureus; type: cell-based; settings: Staphylococcus aureus, ATCC 29213 / MSSA, MSSA S. aureus ATCC29213; read-out: MIC
[3] = system: carbapenemase producing K. pneumoniae; assay: MIC by broth micro-dilution (CLSI), carbapenemase producing K. pneumoniae; type: cell-based, Klebsiella pneumoniae; settings: Klebsiella pneumoniae, ATCCBAA1705, KPC-2 K. pneumoniae ATCC BAA-1705; read-out: MIC
[4] = system: extended spectrum β lactamase (ESBL) SHV18 producing Klebsiella pneumoniae; assay: MIC by broth micro-dilution (CLSI), ESBL SHV18 producing K. pneumoniae; type: cell-based; settings: Klebsiella pneumoniae, ATCC700603, 22 h, ESBL +ve (SHV-18) K. pneumoniae ATCC700603; read-out: MIC
[5] = system: carbapenem sensitive Escherichia coli; assay: MIC by broth micro-dilution (CLSI), carbapenem sensitive E. coli; type: cell-based; settings: Escherichia coli, ATCC25922, ESBL −ve E. coli ATCC25922; read-out: MIC

Row | SMILES | MIC [1] | MIC [2] | MIC [3] | MIC [4] | MIC [5]
1 | C[C@@H](NS(C)(=O)=O)[C@H]1C(=O)N2C(C(=O)O)=C(S[C@@H]3CN[C@H](C(=O)N4CCC(O)CC4)C3)[C@H](C)[C@H]12 [Example 24] | 32 to 64 µg/mL (≈ 61.9 to 124 µM) | 16 µg/mL (≈ 31 µM) | 4 µg/mL (≈ 7.74 µM) | 1 µg/mL (≈ 1.94 µM) | 0.5 µg/mL (≈ 0.968 µM)
2 | C[C@@H](NS(=O)(=O)C(F)(F)F)[C@H]1C(=O)N2C(C(=O)O)=C(S[C@@H]3CN[C@H](C(=O)N4CCN(C)CC4)C3)[C@H](C)[C@H]12 [Example 25] | 128 µg/mL (≈ 225 µM) | 4 µg/mL (≈ 7.02 µM) | 8 µg/mL (≈ 14 µM) | 8 µg/mL (≈ 14 µM) | 1 µg/mL (≈ 1.76 µM)
3 | CC(=O)OCC(=O)N[C@H](C)[C@H]1C(=O)N2C(C(=O)O)=C(S[C@@H]3CN[C@H](C(=O)N(C)C)C3)[C@H](C)[C@H]12 [Example 26] | 128 µg/mL (≈ 265 µM) | 4 µg/mL (≈ 8.29 µM) | 8 µg/mL (≈ 16.6 µM) | 4 to 8 µg/mL (≈ 8.29 to 16.6 µM) | 1 µg/mL (≈ 2.07 µM)
4 | C[C@@H](NS(C)(=O)=O)[C@H]1C(=O)N2C(C(=O)O)=C(S[C@@H]3CN[C@H](C(=O)N4CCOCC4)C3)[C@H](C)[C@H]12 [Example 27] | 64 to 128 µg/mL (≈ 127 to 255 µM) | 16 µg/mL (≈ 31.8 µM) | 4 µg/mL (≈ 7.96 µM) | 1 µg/mL (≈ 1.99 µM) | 0.5 µg/mL (≈ 0.995 µM)
5 | CCOC(=O)C(=O)N[C@H](C)[C@H]1C(=O)N2C(C(=O)O)=C(S[C@@H]3CN[C@H](C(=O)N(C)C)C3)[C@H](C)[C@H]12 [Example 28] | 4 to 8 µg/mL (≈ 8.29 to 16.6 µM) | 8 µg/mL (≈ 16.6 µM) | 4 to 8 µg/mL (≈ 8.29 to 16.6 µM) | 2 µg/mL (≈ 4.14 µM) | 2 µg/mL (≈ 4.14 µM)
6 | C[C@@H](NS(=O)(=O)C(F)(F)F)[C@H]1C(=O)N2C(C(=O)O)=C(S[C@@H]3CN[C@H](C(=O)N4CCOCC4)C3)[C@H](C)[C@H]12 [Example 29] | 128 µg/mL (≈ 230 µM) | 4 µg/mL (≈ 7.19 µM) | > 128 µg/mL | 8 µg/mL (≈ 14.4 µM) | 1 µg/mL (≈ 1.8 µM)
7 | C[C@@H](NS(=O)(=O)C(F)(F)F)[C@H]1C(=O)N2C(C(=O)O)=C(S[C@@H]3CN[C@H](C(=O)N4CCC(O)CC4)C3)[C@H](C)[C@H]12 [Example 30] | 128 µg/mL (≈ 224 µM) | 2 µg/mL (≈ 3.51 µM) | 8 µg/mL (≈ 14 µM) | 8 µg/mL (≈ 14 µM) | 1 µg/mL (≈ 1.75 µM)
8 | C[C@@H](NS(=O)(=O)c1cccs1)[C@H]1C(=O)N2C(C(=O)O)=C(S[C@@H]3CN[C@H](C(=O)N(C)C)C3)[C@H](C)[C@@H]12 [Example 33] | > 128 µg/mL | 4 µg/mL (≈ 7.57 µM) | 16 µg/mL (≈ 30.3 µM) | 32 µg/mL (≈ 60.5 µM) | 4 µg/mL (≈ 7.57 µM)
9 | C[C@@H](NC(=O)C(F)F)[C@H]1C(=O)N2C(C(=O)O)=C(S[C@@H]3CN[C@H](C(=O)N4CCSCC4)C3)[C@H](C)[C@H]12 [Example 35] | > 128 µg/mL | 1 µg/mL (≈ 1.93 µM) | 2 to 4 µg/mL (≈ 3.86 to 7.71 µM) | 4 µg/mL (≈ 7.71 µM) | 1 µg/mL (≈ 1.93 µM)
10 | COC(=S)N[C@H](C)[C@H]1C(=O)N2C(C(=O)O)=C(S[C@@H]3CN[C@H](C(=O)N(C)C)C3)[C@H](C)[C@H]12 [Example 36] | 128 µg/mL (≈ 280 µM) | 1 µg/mL (≈ 2.19 µM) | 16 µg/mL (≈ 35 µM) | 16 µg/mL (≈ 35 µM) | 2 µg/mL (≈ 4.38 µM)
11 | C[C@@H](NC(=O)C(F)F)[C@H]1C(=O)N2C(C(=O)O)=C(S[C@@H]3CN[C@H](C(=O)N4CCC(C(=O)O)CC4)C3)[C@H](C)[C@H]12 [Example 37] | > 128 µg/mL | 16 µg/mL (≈ 29.4 µM) | 16 µg/mL (≈ 29.4 µM) | 1 µg/mL (≈ 1.84 µM) | 1 µg/mL (≈ 1.84 µM)

Continued, values first:

Row | MIC [1] | MIC [2] | MIC [3] | MIC [4] | MIC [5] | SMILES
12 | > 128 µg/mL | 16 µg/mL (≈ 32.3 µM) | 4 µg/mL (≈ 8.07 µM) | 16 µg/mL (≈ 32.3 µM) | 4 µg/mL (≈ 8.07 µM) | CC(C)C[C@H](N)C(=O)N[C@H](C)[C@H]1C(=O)N2C(C(=O)O)=C(S[C@@H]3CN[C@H](C(=O)N(C)C)C3)[C@H](C)[C@H]12 [Example 31]
13 | 32 µg/mL (≈ 69.5 µM) | 1 µg/mL (≈ 2.17 µM) | 1 µg/mL (≈ 2.17 µM) | 1 µg/mL (≈ 2.17 µM) | 0.5 µg/mL (≈ 1.09 µM) | C[C@@H](NC(=O)C(F)F)[C@H]1C(=O)N2C(C(=O)O)=C(S[C@@H]3CN[C@H](C(=O)N(C)C)C3)[C@H](C)[C@H]12 [Example 32]
14 | 128 µg/mL (≈ 230 µM) | 4 µg/mL (≈ 7.19 µM) | 8 µg/mL (≈ 14.4 µM) | 8 µg/mL (≈ 14.4 µM) | 1 µg/mL (≈ 1.8 µM) | C[C@@H](NS(=O)(=O)C(F)(F)F)[C@H]1C(=O)N2C(C(=O)O)=C(S[C@@H]3CN[C@H](C(=O)N4CC[C@@H](O)C4)C3)[C@H](C)[C@H]12 [Example 34]
15 | 32 to 64 µg/mL (≈ 64.3 to 129 µM) | 0.25 µg/mL (≈ 0.502 µM) | 2 to 4 µg/mL (≈ 4.02 to 8.04 µM) | 1 µg/mL (≈ 2.01 µM) | 1 µg/mL (≈ 2.01 µM) | C[C@@H](NC(=O)C(F)F)[C@H]1C(=O)N2C(C(=O)O)=C(S[C@@H]3CN[C@H](CNS(N)(=O)=O)C3)[C@H](C)[C@H]12 [Example 38]
16 | 16 µg/mL | 16 µg/mL | 16 µg/mL | 16 µg/mL | 4 µg/mL | C[C@@H](NS(C)(=O)=O)[C@H]1C(=O)N2C(C(=O)O)=C(S[C@@H]3CN[C@H](C(=O)N4CC[N+](C)(CC(N)=O)CC4)C3)[C@H](C)[C@H]12 [Example 39]
